The target of series [1] is GlP receptor (GlPR) of rat INS-1 insulinoma cells (UniProt P43219).
Series [2] addresses glucose-dependent insulinotropic polypeptide receptor (GlPR) on GeneBLAzer GlPR-CRE-bla HEK293T cells (UniProt P48546). Put plainly: cell-based or functional assay.
A further series deals with T1, GlPR (Rattus norvegicus, UniProt P43219).
T1 construct: endogenous in cells; host or cells: rat INS-1 insulinoma cells carrying a cAMP reporter (a cAMP-luciferase reporter in A2, the pGloSensor-22F biosensor in A4)
T1 sequence (P43219 19-455): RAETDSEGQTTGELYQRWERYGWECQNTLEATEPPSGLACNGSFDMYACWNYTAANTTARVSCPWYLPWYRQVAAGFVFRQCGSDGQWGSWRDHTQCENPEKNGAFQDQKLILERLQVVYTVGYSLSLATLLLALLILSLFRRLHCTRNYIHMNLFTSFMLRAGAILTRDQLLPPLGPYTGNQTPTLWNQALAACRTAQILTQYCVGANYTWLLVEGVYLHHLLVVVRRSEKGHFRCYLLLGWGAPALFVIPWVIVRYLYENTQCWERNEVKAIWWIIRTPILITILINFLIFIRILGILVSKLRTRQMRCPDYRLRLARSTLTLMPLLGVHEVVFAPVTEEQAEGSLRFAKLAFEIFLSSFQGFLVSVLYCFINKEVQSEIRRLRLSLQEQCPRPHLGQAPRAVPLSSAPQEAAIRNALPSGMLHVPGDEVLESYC
The series is described as follows: pGloSensor-22F cAMP biosensor assay in rat INS-1 cells (GlPR agonism and antagonism). It counts as cell-based. Set-up: dose or concentration left out as unconfirmed. The settings on record: increasing doses mixed with GlP(Ag). As to the method:
Briefly, rat INS-1 cells having pGloSensor-22F (Promega) were constructed and used to evaluate GlPR agonism and antagonism. […] The conformational change leads to the activation of the luciferase enzyme, thereby allowing detection of activation of GlPR, which produces cAMP upon activation.
Immediately after the addition, the luminescence of the cells was measured, normalized using the basal luminescence and plotted.

The conditions of series [3]: human NASH patients; cited from earlier work.
The nature of series [4]: Longer-term obesity model in HFD-fed mice. Conditions: for blood glucose levels: Days 0, 1, 10 and 15; for blood glucose levels / average daily food intake: compared to the untreated mice; for plasma insulin levels on Day 15: FIG. 8C right panel; for liver weight / subcutaneous white adipose tissue (sWAT) weight: day 19 terminal necropsy, vs PBS control; for change in body weight: tail vein dosing Day 0, 4, 7, 10, 14, 18, weighed every 2 days; for collagen staining (fibrosis), picrosirius red liver sections / hepatocellular ballooning and steatosis, H&E liver histology: vs vehicle-treated mice. As to the method:
Mice (Male C57BL/6) were of approximately 13 weeks of age were housed 4 mice per cage. Following 2 weeks of acclimatation, mice were introduced to 60% kcal HFD (Research Diets D12492). Cages were changed once, then changed once a week. Weekly body weights and non-fasted blood glucose were collected.
Mice were injected by tail vein with vehicle or the drugs on Day 0, Day 4, Day 7, Day 10, Day 14, and Day 18. Body weights were measured every 2 days. Change in body weight was calculated and plotted.
Cumulative food intake was measured between day 0 and 3, between day 4 and 7, between day 7 and day 11, and between day 11 and day 14, and represented as average daily food intake. For food consumption, remaining food was weighed on days 3, 8, and 15, and subtracted from the starting weight. This value was then normalized to the number of mice in the cage, and the number of days the mice had access to the food prior to weighing.
Blood glucose levels were measured on Days 0, 1, 10 and 15 and plotted.
On day 19 during terminal necropsy, liver and subcutaneous white adipose tissue were recovered weighed from treated animals.
To further analyze the changes in liver, histopathological analysis was conducted. Briefly, the liver tissue was stained with hematoxylin and eosin (H&E) and evaluated using standard techniques.

Series [5] can be described thus: Glucose tolerance test (GTT) model in HFD-fed mice. It counts as in vivo, mice (Male C57BL/6). The settings on record: i.v. treatment, 18 hours fast, 2 g/kg glucose, 15 min to 2 hours. As to the method: Cages were changed once, then changed once a week.
The mice administered the above treatment by i.v. injections. The mice were then fasted for 18 hours and administered a dose of 2 g/kg glucose by i.v. injections. Blood samples were drawn by tail clip bleeding at 15, 30 and 60 minutes post dosing and cardiac bleeding was used at 2 hours after glucose injection as end-point.

The next series addresses T2, GlP receptor (GlPR) (Rattus norvegicus, UniProt P43219).
T2 construct: endogenous in cells; host or cells: rat INS-1 insulinoma cells carrying a cAMP reporter (a cAMP-luciferase reporter in A2, the pGloSensor-22F biosensor in A4)
T2 sequence (P43219 19-455): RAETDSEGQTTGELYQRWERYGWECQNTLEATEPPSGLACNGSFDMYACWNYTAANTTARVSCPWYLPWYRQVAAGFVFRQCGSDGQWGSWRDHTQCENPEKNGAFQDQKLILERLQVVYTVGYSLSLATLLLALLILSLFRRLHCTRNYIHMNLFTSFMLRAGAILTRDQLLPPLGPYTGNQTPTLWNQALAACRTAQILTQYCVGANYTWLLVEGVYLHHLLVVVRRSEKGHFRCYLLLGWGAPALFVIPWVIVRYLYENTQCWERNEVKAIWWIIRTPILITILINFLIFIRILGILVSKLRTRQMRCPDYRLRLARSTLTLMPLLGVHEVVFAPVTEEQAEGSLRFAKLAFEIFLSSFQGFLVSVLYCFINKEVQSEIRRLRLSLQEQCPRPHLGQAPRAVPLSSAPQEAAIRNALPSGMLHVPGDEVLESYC
Put plainly: cAMP-Glo assay in rat insulinoma INS-1 cells harboring a cAMP-luciferase reporter gene. Conditions: 1 hour glucose, then 2 hour incubation with increasing amounts. The format is cell-based. An excerpt: Rat insulinoma INS-1 cells harboring a cAMP-luciferase reporter gene were used to study the activation of GlPR. Without wishing to be bound by theory, the activation of GlPR leads to temporary depletion of ATP because of consumption of ATP in cyclization reaction to produce cAMP as well as by phosphorylation by protein kinase A of its substrate. Without wishing to be bound by theory, the temporary depletion of ATP leads to an inhibition of luciferase activity, which needs ATP as a substrate.

Series [6] addresses T3, glucose-dependent insulinotropic polypeptide receptor (GlPR) (Homo sapiens, UniProt P48546).
T3 construct: host or cells: GeneBLAzer GIPR-CRE-bla HEK293T cells
T3 sequence (P48546 22-466): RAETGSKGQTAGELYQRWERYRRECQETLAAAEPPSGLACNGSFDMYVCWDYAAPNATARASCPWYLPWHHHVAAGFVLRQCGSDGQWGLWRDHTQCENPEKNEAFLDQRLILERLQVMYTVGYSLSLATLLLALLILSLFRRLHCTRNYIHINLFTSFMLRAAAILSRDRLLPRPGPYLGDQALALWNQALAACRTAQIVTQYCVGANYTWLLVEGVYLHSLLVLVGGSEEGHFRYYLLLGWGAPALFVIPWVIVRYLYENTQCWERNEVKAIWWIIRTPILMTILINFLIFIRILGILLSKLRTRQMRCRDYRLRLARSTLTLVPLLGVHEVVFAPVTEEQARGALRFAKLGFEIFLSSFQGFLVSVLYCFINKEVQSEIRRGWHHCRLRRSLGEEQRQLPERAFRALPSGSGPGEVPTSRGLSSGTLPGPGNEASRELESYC
The series is described as follows: GeneBLAzer GlPR-CRE-bla HEK293T cell-based reporter assay. The settings on record: 5 hours incubation; for 460/530 ratio, indicative of the activation of GlPR: increasing amounts. As for the experimental part: This assay is diagrammatically represented in FIG. 3A. […] In the presence of the β-lactamase LiveBLAzer™ substrate, cells expressing β-lactamase fluoresce blue (460 nm), while those not expressing β-lactamase fluoresce green (530 nm); higher 460/530 ratio indicates the activation of GlPR.
Briefly, GeneBLAzer® GlPR-CRE-bla HEK293T cells were added to wells of black-wall assay plates. […] To each well, LiverBLAzer-FRET B/G substrate mixture was added. The plate was covered with plate sealer and incubated at room temperature for 2 hours in the dark. Fluorescence emission was measured on SpectraMax plate reader at 460 nm and 530 nm with excitation set to 409 nm. After subtraction of background, average value at 460 nm (blue color) was divided by average value at 530 nm (green color) to obtain the 460/530 ratio.

Series [7] relates to rat insulinoma INS-1 cells. The series is described as follows: in vitro glucose-stimulated insulin secretion (GSIS) in INS-1 cells. It counts as cell-based. Conditions: 1 hour glucose, then 2 hour incubation; ELISA. From the text:
X is a known inducer of GSIS.
(In general: An ELISA detects its analyte on a solid surface through an enzyme-linked reagent.)

Entries after “also recorded” stand apart in the source; their conditions may differ. Where no end group is shown, it is not given here.

Broadly, the EC50 is the concentration giving half of the maximal effect.

“GlP(Ag)-Fc fusion protein (from UniProt P09681 52-93)” had an EC50 (read off the curve): fall of cAMP-Glo luminescence, rat INS-1 cells in series [1] of 0.007 pM. In addition, the EC50 of GlPR activation (460/530 ratio, GeneBLAzer GlPR-CRE-bla HEK293T beta-lactamase reporter) in [2] was 11.8 pM.
With “GlP(AntPro3): GlP Antagonist (amino acids 1-42, having a E3P substitution); SEQ ID NO: 97 (YAPGTFISDYSIAMDKIHQQDFVNWLLAQKGKKNDWKHNITQ)”, the “inhibition of GlP(Ag)-induced activation of the cAMP-luciferase reporter gene (GlPR antagonism)” value with GlPR is on record as “more potent inhibition of GlP agonist signaling than the others tested; also recorded: maximal level of a dose-dependent inhibition of GlP(Ag)-induced activation”.
As for “GlP(AntPro3NH2): GlP antagonist peptide derivative of GlP(AntPro3), NH2 form (YAPGTFISDYSIAMDKIHQQDFVNWLLAQKGKKNDWKHNITQ-NH2)”, in the series with GlPR, the “inhibition of GlP(Ag)-induced activation of the cAMP-luciferase reporter gene (GlPR antagonism)” value is recorded as “more potent inhibition of GlP agonist signaling than the others tested; also recorded: maximal level of a dose-dependent inhibition of GlP(Ag)-induced activation”.
As to “Pegbelfermin [Pegbelfermin (BMS-986036)]”, the liver fat content entry in series [3] is given as “reduce liver fat content”.
Turning to dulaglutide [reference compound], in series [4], the blood glucose levels entry is “decrease in blood glucose”, the “plasma insulin levels on Day 15” value is “significant decrease in the levels of insulin”, the “average daily food intake” value is given as “decrease in food intake” and the liver weight result is reported as “livers of control mice that received only PBS were much heavier”. For the same molecule, in series [4], the “subcutaneous white adipose tissue (sWAT) weight” value is listed as “decreased”; the “change in body weight” value was “progressive weight loss”; the “collagen staining (fibrosis), picrosirius red liver sections” value was “decrease in collagen staining”; the “hepatocellular ballooning and steatosis, H&E liver histology” value is “decrease in hepatocellular ballooning and steatosis”. Further, the “plasma insulin levels on Day 1” value in [4] (between 15 and 120 minutes after treatment) was “rapid decrease in insulin levels”. For the same molecule, in series [4] (tail vein dosing Day 0 to Day 18), the “tolerability, clinical observations” value is “well tolerated and no overt toxicities were noted”.
Take tirzepatide (peptide): the EC50 (read off the curve): fall of cAMP-Glo luminescence, rat INS-1 cells in series [1] is 0.003 pM.
As for tirzepatide [reference compound], in series [5], the “serum insulin following glucose administration” value is given as “rapid induction of insulin”. In addition, the “serum glucose following glucose administration” value in [5] (vs PBS control) was “much smaller increase in serum glucose”. Further, on GlP receptor (GlPR), the “luciferase activity (cAMP-Glo), activation of GlPR” value is “dose-dependent and saturable inhibition of luciferase with similar potency”. In addition, in [4], the blood glucose levels entry is “decrease in blood glucose”, the “plasma insulin levels on Day 15” value was “significant decrease in the levels of insulin”, the “average daily food intake” value is “decrease in food intake” and the liver weight entry was “livers of control mice that received only PBS were much heavier”. In [4], the “subcutaneous white adipose tissue (sWAT) weight” value is recorded as “decreased”; the “change in body weight” value is “progressive weight loss”; the “collagen staining (fibrosis), picrosirius red liver sections” value is on record as “decrease in collagen staining”; the “hepatocellular ballooning and steatosis, H&E liver histology” value is “decrease in hepatocellular ballooning and steatosis”. Moreover, the “hepatocellular ballooning and steatosis, H&E under higher magnifications” value in [4] (compared to untreated animals) is “significant decrease in hepatocellular ballooning and steatosis”. Besides, in series [6], the “460/530 ratio, indicative of the activation of GlPR” value is “dose-dependent and saturable increase in 460/530 ratio”.

B1: GlP(Ag)-Fc-FGF19: GlP fused to FGF19 via a hinge-CH2-CH3 Fc domain derived from IgG1; SEQ ID NO: 88 (protein)
chain: YAEGTFISDYSIAMDKIHQQDFVNWLLAQKGKKNDWKHNITQPCPAPEAAGGPSVFLFPPKPKDTLMISRTPEVTCVVVDVSHEDPEVKFNWYVDGVEVHNAKTKPREEQYNSTYRVVSVLTVLHQDWLNGKEYKCKVSNKALPAPIEKTISKAKGQPREPQVYTLPPSRDELTKNQVSLTCLVKGFYPSDIAVEWESNGQPENNYKTTPPVLDSDGSFFLYSKLTVDKSRWQQGNVFSCSVMHEALHNHYTQKSLSLSPGKIEGRMDRDSSPLVHYGWGDPIRLRHLYTSGPHGLSSCFLRIRADGVVDCARGQSAHSLLEIKAVALRTVAIKGVHSVRYLCMGADGKMQGLLQYSEEDCAFEEEIRPDGYNVYRSEKHRLPVSLSSAKQRQLYKNRGFLPLSHFLPMLPMVPEEPEDLRGHLESDMFSSPLETDSMDPFGLVTGLEAVRSPSFEK
As to B1, in series [7], the “insulin in the culture supernatant (GSIS)” value was “stimulated insulin production to a similar, if not greater magnitude than dulaglutide or tirzepatide”. Further, the “luciferase activity (cAMP-Glo), activation of GlPR” value with GlP receptor (GlPR) was “dose-dependent and saturable inhibition of luciferase with similar potency”. Moreover, the EC50 in series [6] (460/530 ratio, purified proteins, read-out: EC50 of GlPR activation) amounted to 0.0131 nM. Further, in series [6], the “460/530 ratio, indicative of the activation of GlPR” value was “dose-dependent and saturable increase in 460/530 ratio”.

These data come from US20250066446A1, “FUSION PROTEINS FOR THE TREATMENT OF CARDIOMETABOLIC DISEASES” (Shattuck Labs, Inc., priority 2022, published 2025).
